Patent US11028138B2, “Compositions and methods for using actin-based peptides to modulate cellular bioactivity and cellular susceptibility to intracellular pathogens” (priority 2016, dated 2021)

What was measured:
HIV-1 [1] = conditions: pretreatment; cited from earlier work
HIV-1 [2] = conditions: dosages that did not affect CD4 T cell activation or induce cytotoxicity; cited from earlier work
Influenza A virus (IAV) [3] = conditions: A549 cells; read-out: IC50, reduction of viral replication; cited from earlier work
Influenza A virus (IAV) [4] = conditions: vs solvent-treated control mice; cited from earlier work
[5] = tested on: Human T lymphoblast cell A3.01; assay: N10-mediated cell killing, Propidium iodide and FITC-Annexin V staining, flow cytometry; format: cell-based; conditions: 10 uM; A3.01 cells
Method: FIG. 8: Human T lymphoblast cell A3.01 was treated with N10 (10 uM). N10-mediated cell killing was monitored by staining of dead cells with Propidium iodide and FITC-labelled Annexin V. Cells were analyzed by flow cytometry.
N10-mediated cell killing was monitored by staining of dead cells with Propidium iodide and FITC-labelled Annexin V. Cells were analyzed by flow cytometry.
• 5) Culture human A3.01 cells at 5×10^5 cells/ml • 6) Add peptide N10 to the cell to a final concentration of 10 uM • 7) Continue to culture cell at 37° C., maintain cell density below 1×10^6 cells/ml 8) Take out 1-2×10^5 cells, put on ice, add P.I., and FITC—Annexin V as recommended by the reagent manufacturer for dead/apoptotic cell staining. • 9) Analyzed the staining by flow cytometer.

actin = assay: Actin polymerization and depolymerization by FITC-phalloidin staining in resting CD4 T cells; format: cell-based
Method: (§1) FIG. 5: Peptide N7 and N9 modulate cell signal transduction and chemotactic cofilin and actin activity. (A) Resting memory CD4 T cells were treated with N7 for a time course, cofilin phosphorylation was measured by Western Blot. Total cofilin and GAPDH was also measured for loading control. (B) Resting CD4 T cells were treated with N9, and actin polmerization and depolymerization were measured by FITC-phalloidin staining.
(§2) Resting memory CD4 T cells were treated with N7 for a time course, and cofilin phosphorylation was measured by Western Blot. Total cofilin and GAPDH was also measured for loading control (FIG. 5A). Resting CD4 T cells were treated with N9, and actin polmerization and depolymerization were measured by FITC-phalloidin staining (FIG. 5B).

HIV [6] = assay: HIV DNA synthesis, 2-LTR circles and DNA integration in CEM-SS T cells and blood resting CD4 T cells; format: cell-based; conditions: for HIV DNA synthesis / HIV nuclear migration (2-LTR circles): peptide during 2 h infection; for HIV DNA integration: resting CD4 T cells, no T cell activation
Method: (§3) FIG. 6: Peptide N7 and N9 enhance HIV DNA synthesis, nuclear migration, and integration. (A) CEM-SS T cells were treated with N7 during HV infection for 2 hours, washed, and then analyzed for viral DNA synthesis and 2-LTR circles, a marker for HIV nuclear migration. (B) Blood resting CD4 T cells were similar infected, washed, and cultured without T cell activation. Viral DNA synthesis and DNA integration were analyzed.
as §3, with “CEM-SS” for “FIG. 6: Peptide N7 and N9 enhance HIV DNA synthesis, nuclear migration, and integration. (A) CEM-SS”, “migration.” for “migration. (B)”

HIV [7] = assay: HIV infection of resting CD4 T cells, viral p24 release; format: cell-based
Method: FIG. 7: Peptide N9 promotes HIV infection of resting CD4 T cells. Resting CD4 T cells were treated with N9, and then infected with HIV for 2 hours. Following infection, cells were washed, and culture in the absence of T cell activation and N9. Viral p24 release was measured. As controls, cells were culture with the addition of IL-7 (daily addition), or with a scrambled peptide, or only in the culture medium.
The ability of N9 to stimulate HIV infection of blood resting CD4 T cells was also tested. Resting CD4 T cells are relatively resistant to HIV infection. The lack of activity in the cortical actin limits viral early steps in the infection of resting T cells (Yoder et aI., 2008).

HIV-1 [8] = conditions: Rev-CEM-GFP; 2 h infection; 2 days post infection; viable (low PI) cells; HIV alone 0.79% (N7 experiment), 1.95% (N9 experiment)
Method: (A) The HIV Rev-dependent indicator cell, Rev-CEM-GFP, was not infected (+Cell) or infected with HIV-1 (+HIV), or pre-treated with peptide N7, and then infected with HIV-1 (N7+HIV). Following infection for 2 hours, cells were washed to remove the virus and the peptide. Viral replication was measured at 2 days post infection by flow cytometry. […] PI, propidium iodide, was added before flow cytometry for cytotoxicity control. GFP+ cells were counted only when the cells are viable (low PI staining). (B) Effects of peptide N9 were similarly measured.
The HIV Rev-dependent indicator cell, Rev-CEM-GFP, was not infected (+Cell) or infected with HIV-1 (+HIV), or pre-treated with peptide N7, and then infected with HIV-1 (N7+HIV). Following infection for 2 hours, cells were washed to remove the virus and the peptide. Viral replication was measured at 2 days post infection by flow cytometry.
PI, propidium iodide, was added before flow cytometry for cytotoxicity control. GFP+ cells were counted only when the cells are viable (low PI staining).

surface CXCR4 receptors = assay: Surface receptor staining and flow cytometry after peptide stimulation (CXCR4); format: cell-based, human; conditions: T cells exposed to peptide, 10 uM, 5 to 120 min
Method: (§4) FIG. 4: Up-regulation of cell surface receptors by N7. CEM-SS T cells or blood resting CD4 T cells were stimulated with peptide N7 for a time course. Effects on surface CD4, CXCR4 density were measured by anti-CD4 or anti-CXCR4, followed by flow cytometry.
(§5) • 1) Culture human CEM-SS T cells at 5×10^5 cells/ml • 2) Add peptide N7 to the cell to a final concentration of 10 uM at various times from 5 min to 120 min (e. g. 5, 10, 15, 30, 45, 60, 120 min). • 3) Take out 1-2×10^5 cells, put on ice, perform routine surface staining using FITC-, PE- or PE-cy5-labelled specific antibodies against cell receptors as recommended by the reagent manufacturer for cell surface staining. • 4) Analyzed the staining by flow cytometer.

surface CD4 receptor = assay: Surface receptor staining and flow cytometry after peptide stimulation (CD4); format: cell-based, human; conditions: T cells exposed to peptide, 10 uM, 5 to 120 min
Method: as §4, §5

cofilin = assay: Cofilin phosphorylation by Western Blot in resting memory CD4 T cells; format: cell-based; conditions: time course
Method: as §1, §2

## C=C1[C@@H](C)[C@H]2[C@H](Cc3ccccc3)NC(=O)[C@]23[C@H](OC(C)=O)/C=C/[C@@](C)(O)C(=O)[C@@H](C)C/C=C/[C@H]3[C@@H]1O [CCD, cytochalasin D]
HIV-1 [1]
  Reduction of nuclear accumulation of late RT products: 25 fold

## O=C1CSC(c2cccc(Br)c2)N1c1cc(Cl)ccc1O (stereo not shown) [CK-548]
HIV-1 [2]
  HIV-1 replication: dramatically reduced

## CCN(CC)CCCC(C)Nc1nc(C)cc(Nc2ccc3nc(C)cc(N)c3c2)n1 (stereo not shown) [NSC23766]
Influenza A virus (IAV) [3]
  IC50: 22 µM
Influenza A virus (IAV) [4]
  Body weights: increased
  Survivability: higher
  Titer of IAV in lung tissue: reduce titer

## RRRRRRRR(G/A)0-20AGRDLTDYLMKILTERGYSF [Peptide N10]
[5]
  Cell killing: killing of T cells

## RRRRRRRR(G/A)0-20HTVRIYEGYALRHAILRLDL [Peptide N9]
actin
  Actin polymerization/depolymerization: modulate
HIV [6]
  HIV DNA synthesis: enhance
  HIV nuclear migration (2-LTR circles): enhance
  HIV DNA integration: enhance
HIV [7]; early time
  Stimulation of viral infection compared with IL-7 (administered daily): more potent
HIV [7]; single-dosage treatment prior to infection, no T cell activation or cytokine stimulation
  HIV infection of resting T cells (p24 release): drastically stimulated
HIV-1 [8]
  HIV infection, percentage of GFP+ cells: 14.07%

## RRRRRRRR(G/A)0-20QIMFETENTPAMYVAIQAVL [Peptide N7]
Surface CXCR4 receptors
  Surface CXCR4 receptor density: drastically up-regulate
Surface CD4 receptor
  Surface CD4 receptor density: moderate up-regulation
cofilin
  Cofilin activation: briefly triggers cofilin activation
actin
  Actin polymerization/depolymerization: actin depolymerization
HIV [6]
  HIV DNA synthesis: enhance
  HIV nuclear migration (2-LTR circles): enhance
  HIV DNA integration: enhance
HIV-1 [8]
  HIV infection, percentage of GFP+ cells: 15.5%
